Measured values: patent US20140107021A1 (priority 2010, published 2014)
Read-outs that look alike come from different tables or passages of the source. Blank lines part the entries; values can stand above or below the compound they belong to. Square brackets hold non-standard residues; d marks the D form. Side chains are listed from the residue outwards. Ends that are not written are not given here. Peptide text beside a SMILES is read from it. * marks the point of attachment. Carboxymethyl = O=C(O)C*; CH2CH2COOH = O=C(O)CC*

Key:
[1] = molecular target: T1, glucagon receptor (Homo sapiens, UniProt P47871); assay: glucagon receptor binding; design: expressed in transfected cells; host or cells: HEK293
[2] = molecular target: T1, glucagon receptor; assay: cell-based
Source text: HEK293 cells co-transfected with the receptor and luciferase gene linked to a cAMP responsive element were employed for the bioassay.
All EC50s and IC50s are reported in the following examples in nM, unless indicated otherwise.

[3] = solubility at pH 6-8; assay type: physicochemical
[4] = Table G, average ±STD of at least three experiments, same values as receptor binding in Table I, read-out: IC50
[5] = Table L, read-out: IC50(nM) (Receptor binding)
[6] = read-out: IC50(nM) (cΛMP, inhibit 0.2 mM Glucagon), Table L, inhibit 0.2 mM Glucagon
[7] = Table L, inhibit 0.2 mM Glucagon

T1 sequence (P47871 26-477): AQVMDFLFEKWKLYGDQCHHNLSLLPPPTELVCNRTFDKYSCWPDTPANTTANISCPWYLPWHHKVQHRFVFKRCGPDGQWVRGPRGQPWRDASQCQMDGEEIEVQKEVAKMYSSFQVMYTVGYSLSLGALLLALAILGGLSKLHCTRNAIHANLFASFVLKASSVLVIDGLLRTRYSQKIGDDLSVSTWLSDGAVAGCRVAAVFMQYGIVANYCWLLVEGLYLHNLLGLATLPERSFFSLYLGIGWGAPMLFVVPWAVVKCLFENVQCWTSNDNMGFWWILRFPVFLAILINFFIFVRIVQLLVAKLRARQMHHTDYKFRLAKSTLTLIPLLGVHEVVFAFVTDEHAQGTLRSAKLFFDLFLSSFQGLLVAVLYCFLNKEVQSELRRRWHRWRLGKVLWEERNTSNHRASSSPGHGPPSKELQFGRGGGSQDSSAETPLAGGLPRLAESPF

Compound: CSCC[C@H](NC(=O)[C@H](CC(C)C)NC(=O)[C@H](Cc1c[nH]c2ccccc12)NC(=O)[C@H](CCC(N)=O)NC(=O)[C@@H](NC(=O)[C@H](Cc1ccccc1)NC(=O)[C@H](CC(=O)O)NC(=O)[C@H](CCC(N)=O)NC(=O)[C@H](C)NC(=O)[C@H](CCCNC(=N)N)NC(=O)[C@H](CCCNC(=N)N)NC(=O)[C@H](CO)NC(=O)[C@H](CC(=O)O)NC(=O)[C@H](CC(C)C)NC(=O)[C@H](Cc1ccc(O)cc1)NC(=O)[C@H](CCCCN)NC(=O)[C@H](CO)NC(=O)[C@H](Cc1ccc(O)cc1)NC(=O)[C@H](CCCC(=O)O)NC(=O)[C@H](CO)NC(=O)[C@@H](NC(=O)[C@@H](N)Cc1ccccc1)[C@@H](C)O)C(C)C)C(=O)N[C@@H](CC(N)=O)C(=O)N[C@H](C(N)=O)[C@@H](C)O [(hGlu^9]Glucagon(aa6-29)-NH2] (HELM PEPTIDE1{F.T.S.[O=C(O)CCC[C@H](N[*:1])C(=O)[*:2]].Y.S.K.Y.L.D.S.R.R.A.Q.D.F.V.Q.W.L.M.N.T.[am]}$$$$V2.0; N-terminus assumed)
IC50 [1, 4]: 163 ± 70.8 nM
Kb [2]: 537 nM
cAMP pA2 ([2]; Table I): 6.27 ± 0.11

Compound: FTSEYSKYLDSRRAQDFVQWLMNT-NH2 [[Glu^9]Glucagon(aa6-29)-NH2]
IC50 [1, 4]: 36.4 ± 5.23 nM
Kb [2]: 69.2 nM
cAMP (I/A)50 [2]: 486
cAMP pA2 [2]: 7.16 ± 0.27

Compound: [C5(1.2 kDaPEG), E9]Glucagon(aa5-29)-NII2
IC50 [1, 5]: 1080 ± 268 nM
IC50 [2, 6]: 2280 nM

Compound: [C8(20 kDaPEG), E9]Glucagon(aa6-29)-NH2 (FTC(PEG 20 kDa)EYSKYLDSRRAQDFVQWLMNT-NH2)
IC50 [1, 5]: > 1000 nM
IC50(nM) (cΛMP, inhibit 0.2 mM Glucagon) [2, 7]: no antagonism

Compound: [E9, C11(20 kDaPEG)]Glucagon(aa6-29)-NH2 (FTSEYC(PEG 20 kDa)KYLDSRRAQDFVQWLMNT-NH2)
IC50 [1, 5]: > 1000 nM
IC50(nM) (cΛMP, inhibit 0.2 mM Glucagon) [2, 7]: no antagonism

Compound: [E9, C24(20 kDaPEG)]Glucagon(aa6-29)-NH2 (FTSEYSKYLDSRRAQDFVC(PEG 20 kDa)WLMNT-NH2; not fully specified (residue 1))
IC50 [1, 5]: > 1000 nM
IC50(nM) (cΛMP, inhibit 0.2 mM Glucagon) [2, 7]: no antagonism

Compound: [K5(CH2CH2S-20 kDaPEG), E9]Glucagon(aa5-29)-NH2 (K([CH2CH2S-PEG 20 kDa])FTSEYSKYLDSRRAQDFVQWLMNT-NH2)
IC50 [1, 5]: > 10000 nM
IC50(nM) (cΛMP, inhibit 0.2 mM Glucagon) [2, 7]: no antagonism

Continued, values first:

IC50 [1, 4]: 107 ± 5.37 nM
Kb [2]: 209 nM
cAMP pA2 ([2]; Table I): 6.68 ± 1.05
Compound: CSCC[C@H](NC(=O)[C@H](CC(C)C)NC(=O)[C@H](Cc1c[nH]c2ccccc12)NC(=O)[C@H](CCC(N)=O)NC(=O)[C@@H](NC(=O)[C@H](Cc1ccccc1)NC(=O)[C@H](CC(=O)O)NC(=O)[C@H](CCC(N)=O)NC(=O)[C@H](C)NC(=O)[C@H](CCCNC(=N)N)NC(=O)[C@H](CCCNC(=N)N)NC(=O)[C@H](CO)NC(=O)[C@H](CC(=O)O)NC(=O)[C@H](CC(C)C)NC(=O)[C@H](Cc1ccc(O)cc1)NC(=O)[C@H](CCCCN)NC(=O)[C@H](CO)NC(=O)[C@H](Cc1ccc(O)cc1)NC(=O)[C@H](CSCC(=O)O)NC(=O)[C@H](CO)NC(=O)[C@@H](NC(=O)[C@@H](N)Cc1ccccc1)[C@@H](C)O)C(C)C)C(=O)N[C@@H](CC(N)=O)C(=O)N[C@H](C(N)=O)[C@@H](C)O [[(CSA-1)^9]Glucagon(aa6-29)-NII2, [C^9(SCH2COOH)]Glucagon(aa6-29)-NH2] (H-FTSC(Carboxymethyl)YSKYLDSRRAQDFVQWLMNT-NH2; N-terminus assumed)

IC50 [1, 4]: 146 ± 36.9 nM
Kb [2]: 229 nM
cAMP pA2 ([2]; Table I): 6.64 ± 0.29
Compound: CSCC[C@H](NC(=O)[C@H](CC(C)C)NC(=O)[C@H](Cc1c[nH]c2ccccc12)NC(=O)[C@H](CCC(N)=O)NC(=O)[C@@H](NC(=O)[C@H](Cc1ccccc1)NC(=O)[C@H](CC(=O)O)NC(=O)[C@H](CCC(N)=O)NC(=O)[C@H](C)NC(=O)[C@H](CCCNC(=N)N)NC(=O)[C@H](CCCNC(=N)N)NC(=O)[C@H](CO)NC(=O)[C@H](CC(=O)O)NC(=O)[C@H](CC(C)C)NC(=O)[C@H](Cc1ccc(O)cc1)NC(=O)[C@H](CCCCN)NC(=O)[C@H](CO)NC(=O)[C@H](Cc1ccc(O)cc1)NC(=O)[C@H](CSCCC(=O)O)NC(=O)[C@H](CO)NC(=O)[C@@H](NC(=O)[C@@H](N)Cc1ccccc1)[C@@H](C)O)C(C)C)C(=O)N[C@@H](CC(N)=O)C(=O)N[C@H](C(N)=O)[C@@H](C)O [[(CSA-2)^9]Glucagon(aa6-29)-NH2, [C^9(SCH2CH2COOH)]Glucagon(aa6-29)-NH2] (H-FTSC(CH2CH2COOH)YSKYLDSRRAQDFVQWLMNT-NH2; N-terminus assumed)

Solubility (%, pH 6-8) [3]: 100%
Compound: CSCC[C@H](NC(=O)[C@H](CC(C)C)NC(=O)[C@H](Cc1c[nH]c2ccccc12)NC(=O)[C@H](CCC(N)=O)NC(=O)[C@@H](NC(=O)[C@H](Cc1ccccc1)NC(=O)[C@H](CC(=O)O)NC(=O)[C@H](CCC(N)=O)NC(=O)[C@H](C)NC(=O)[C@H](CCCNC(=N)N)NC(=O)[C@H](CCCNC(=N)N)NC(=O)[C@H](CO)NC(=O)[C@H](CC(=O)O)NC(=O)[C@H](CC(C)C)NC(=O)[C@H](Cc1ccc(O)cc1)NC(=O)[C@H](CCCCN)NC(=O)[C@H](CO)NC(=O)[C@H](Cc1ccc(O)cc1)NC(=O)[C@H](CC(=O)O)NC(=O)[C@H](CO)NC(=O)[C@@H](NC(=O)[C@@H](O)Cc1ccccc1)[C@@H](C)O)C(C)C)C(=O)N[C@@H](CC(=O)O)C(=O)N[C@H](C(N)=O)[C@@H](C)O [[PLA6, D9, D28]Glucagon(aa6-29)-NH2]

Solubility (%, pH 6-8) [3]: 96%
IC50 ([2]; IC50(nM) (cAMP, inhibit Glucagon) 0.1 nM, Table J, inhibit 0.1 nM glucagon): 13.2 nM
Compound: CSCC[C@H](NC(=O)[C@H](CC(C)C)NC(=O)[C@H](Cc1c[nH]c2ccccc12)NC(=O)[C@H](CCC(N)=O)NC(=O)[C@@H](NC(=O)[C@H](Cc1ccccc1)NC(=O)[C@H](CC(=O)O)NC(=O)[C@H](CCC(N)=O)NC(=O)[C@H](C)NC(=O)[C@H](CCCNC(=N)N)NC(=O)[C@H](CCCNC(=N)N)NC(=O)[C@H](CO)NC(=O)[C@H](CC(=O)O)NC(=O)[C@H](CC(C)C)NC(=O)[C@H](Cc1ccc(O)cc1)NC(=O)[C@H](CCCCN)NC(=O)[C@H](CO)NC(=O)[C@H](Cc1ccc(O)cc1)NC(=O)[C@H](CC(=O)O)NC(=O)[C@H](CO)NC(=O)[C@@H](NC(=O)[C@@H](O)Cc1ccccc1)[C@@H](C)O)C(C)C)C(=O)N[C@@H](CC(N)=O)C(=O)N[C@H](C(=O)O)[C@@H](C)O [[PLA6, D9]Glucagon(aa6-29)-COOH] (HELM PEPTIDE1{[O=C([C@@H](O)Cc1ccccc1)[*:2]].T.S.D.Y.S.K.Y.L.D.S.R.R.A.Q.D.F.V.Q.W.L.M.N.T}$$$$V2.0)

IC50 ([1]; Table J, read-out: IC50(nM) (Receptor binding)): 13.9 ± 3.22 nM
Solubility (%, pH 6-8) [3]: 11%
Compound: CSCC[C@H](NC(=O)[C@H](CC(C)C)NC(=O)[C@H](Cc1c[nH]c2ccccc12)NC(=O)[C@H](CCC(N)=O)NC(=O)[C@@H](NC(=O)[C@H](Cc1ccccc1)NC(=O)[C@H](CC(=O)O)NC(=O)[C@H](CCC(N)=O)NC(=O)[C@H](C)NC(=O)[C@H](CCCNC(=N)N)NC(=O)[C@H](CCCNC(=N)N)NC(=O)[C@H](CO)NC(=O)[C@H](CC(=O)O)NC(=O)[C@H](CC(C)C)NC(=O)[C@H](Cc1ccc(O)cc1)NC(=O)[C@H](CCCCN)NC(=O)[C@H](CO)NC(=O)[C@H](Cc1ccc(O)cc1)NC(=O)[C@H](CC(=O)O)NC(=O)[C@H](CO)NC(=O)[C@@H](NC(=O)[C@@H](O)Cc1ccccc1)[C@@H](C)O)C(C)C)C(=O)N[C@@H](CC(N)=O)C(=O)N[C@H](C(N)=O)[C@@H](C)O [[PLA6, D9]Glucagon(aa6-29)-NH2] (HELM PEPTIDE1{[O=C([C@@H](O)Cc1ccccc1)[*:2]].T.S.D.Y.S.K.Y.L.D.S.R.R.A.Q.D.F.V.Q.W.L.M.N.T.[am]}$$$$V2.0)

IC50 ([1]; Table H, same values as receptor binding in Table I, read-out: IC50): 59.1 ± 18.1 nM
Kb [2]: 69.2 nM
cAMP pA2 ([2]; Table I): 7.16 ± 0.51
IC50 ([2]; cAMP IC50(nM), Table H): 133 nM
Compound: CSCC[C@H](NC(=O)[C@H](CC(C)C)NC(=O)[C@H](Cc1c[nH]c2ccccc12)NC(=O)[C@H](CCC(N)=O)NC(=O)[C@@H](NC(=O)[C@H](Cc1ccccc1)NC(=O)[C@H](CC(=O)O)NC(=O)[C@H](CCC(N)=O)NC(=O)[C@H](C)NC(=O)[C@H](CCCNC(=N)N)NC(=O)[C@H](CCCNC(=N)N)NC(=O)[C@H](CO)NC(=O)[C@H](CC(=O)O)NC(=O)[C@H](CC(C)C)NC(=O)[C@H](Cc1ccc(O)cc1)NC(=O)[C@H](CCCCN)NC(=O)[C@H](CO)NC(=O)[C@H](Cc1ccc(O)cc1)NC(=O)[C@H](CCS(=O)(=O)O)NC(=O)[C@H](CO)NC(=O)[C@@H](NC(=O)[C@@H](N)Cc1ccccc1)[C@@H](C)O)C(C)C)C(=O)N[C@@H](CC(N)=O)C(=O)N[C@H](C(N)=O)[C@@H](C)O [[hCys^9(SO3H)]Glucagon(aa6-29)-NH2] (HELM PEPTIDE1{F.T.S.[O=C([C@H](CCS(=O)(=O)O)N[*:1])[*:2]].Y.S.K.Y.L.D.S.R.R.A.Q.D.F.V.Q.W.L.M.N.T.[am]}$$$$V2.0)

IC50 [1, 5]: > 10000 nM
IC50(nM) (cΛMP, inhibit 0.2 mM Glucagon) [2, 7]: no antagonism
Compound: [Phe6, E9, C24(20 kDaPEG)]Glucagon aa6-29)-NH2 (FTSEYSKYLDSRRAQDFVC(PEG20kDa)WLMNT-NH2)

IC50 [1, 5]: > 10000 nM
IC50 [2, 6]: 14800 nM
Compound: [d-Cys5(20 kDaPEG, E9]Glucagon(aa5-29)-NH2 ([dC](PEG 20 kDa)FTSEYSKYLDSRRAQDFVQWLMNT-NH2)
